Assay results as given in US7267821B2, “Binding member which binds to both Lewisy and Lewisb haptens, and its use for treating cancer” (Scancell Limited, priority 2001, dated 2007).

Columns and labels:
Type in all cases: cell-based
C170 cells = assay: 5FU and SC101/29, crystal violet cell number after 5 days; conditions: 5 Fluorouracil 0.25 μg/ml alone
Procedure: 3×10^3 C170 cells were plated into microtitre plates and left overnight to adhere. 5FU was added to a final concentrations of 0.25 and 0.5 μg/ml .SC101/29 antibody was also added at concentration of 1-50 μg/ml. […] However, in combination with a non-toxic dose of 5 Fluorouracil (0.25 μg/ml) there was a 70% reduction in cell growth.

Colorectal C170 cells = assay: Cyto Death ELISA for fragmented DNA, with or without cisplatin; conditions: cisplatin at 3 μg/ml alone
Procedure: The cultures were then washed once and incubated in goat anti-mouse antibody at 100 μg/ml for 30 minutes at room temperature. The cultures were then re-washed and left over night in culture medium with or without cisplatin. The following day the cultures were washed, lysed and tested for the presence of fragmented DNA by a Cyto Death ELISA (Roche). The results were recorded by optical Density measurements at 405 nm.

[1] = tested on: C170 colorectal tumour cells; assay: Cisplatin then SC101/29, crystal violet viable cells after 4 days; set-up: dose or concentration left out as unconfirmed; conditions: cisplatin alone
Procedure: […] The cells were left for 4 days when the number of viable cells was determined by crystal violet staining and optical density reading at 550 nm. […] The combination of drug and antibody are synergistic, inducing a 50% reduction in cell growth.

| Compound | toxicity of dose to C170 cells (C170 cells) | apoptosis (fragmented DNA) (Colorectal C170 cells) | inhibition of C170 cell growth [1] |
| --- | --- | --- | --- |
| O=c1[nH]cc(F)c(=O)[nH]1 [5 Fluorouracil] | non-toxic |  |  |
| N.N.[Cl][Pt][Cl] [cisplatin] |  | induces apoptosis | 10% |
